# Data from patent US4937266A, “Inhibitory agent of hepatic fibrosis” (priority 1988, dated 1990).
# Assays:
# prolyl hydroxylase = details: rabbit, in vivo
# From the text: Male Japanese white rabbits weighing 2.5 kg were used. A cholesterol group consisting of 8 rabbits were fed on RC-4 diet (sold by Oriental Kobo Co., Ltd.) containing 0.5% cholesterol for 10 weeks. […] A control group consisting of 3 rabbits were fed on RC-4 diet for the same period.
# The rabbits were sacrificed by exsangunation from abdominal aorta under anesthesia with pentobarbital and the liver and kidney were removed. A portion of the each organ was homogenized with 9 times the volume of a 0.01M Tris-hydrochloric acid buffer solution (pH 7.4) containing 10^-5 M EDTA and 10^-4 M DTT in Polytron homogenizer. The prolyl hydroxylase activity was expressed as radioactivity of ^3 H2 O released per milligram of protein when ^3 H-proline labeled unhydroxylated collagen was incubated as a substrate for 30 minutes. […] Incubation was carried out at 30° C. for 30 minutes. 100 μl of a 55% trichloroacetic acid aqueous solution was added thereto to stop the reaction. The ^3 H2 O of the reaction mixture was separated by vacuum distillation of the whole reaction mixture. An aliquot (800 μl) of the distillate was mixed with 10 ml of Aquasol and counted for the radioactivity in a liquid scintillation counter. The protein amount was measured by BIO.RAD Protein Assay Kit using bovine serum albumin (BSA) as a standard.
# viral hepatitis = details: reported in JP-A-No. 58-35118; cited from earlier work
# medicinal fatty liver = details: reported in JP-B-No. 60-19891; cited from earlier work
smiles,measurement,setting,value
"CC(C)(CO)[C@@H](O)C(=O)NCCC(=O)NCCSSCCNC(=O)CCNC(=O)[C@H](O)C(C)(C)CO [Pantethine, D-bis-(N-pantothenyl-β-aminoethyl)-disulfide]","Prolyl Hydroxylase Activity, Liver",prolyl hydroxylase,729.3 ± 45.6 cpm/mg-protein
same,prolyl hydroxylase activity in the liver (in words),prolyl hydroxylase,decreased nearly to the level of the normal group
same,effect on viral hepatitis (in words),viral hepatitis,effective
same,effect on medicinal fatty liver (in words),medicinal fatty liver,effective
